Measured values: patent publication US20240016748A1, “DIRECT DELIVERY OF VITAMINS TO INHIBIT MICROBIAL PATHOGENS” (DSM IP ASSETS B.V., priority 2020, published 2024)

Tests used:
[1] = system: adherent-invasive E. coli (AIEC); assay: Short-term pathogen challenge test, AIEC; type: cell-based, Escherichia coli; details: positive control, 125 ppm; 48 h colonic incubation
[2] = system: Salmonella enteritidis; assay: Short-term pathogen challenge test, Salmonella enteritidis; type: cell-based; details: positive control, 125 ppm; 48 h colonic incubation

## O=C(O)c1cn(C2CC2)c2cc(N3CCNCC3)c(F)cc2c1=O [ciprofloxacin]
[1]
  abundance of AIEC: decreased abundance of AIEC
[2]
  abundance of Salmonella enteritidis: strongly decreased abundance of Salmonella enteritidis
